What all share (assay): NCI tumour cell line growth inhibition, 48 h
Assay [1] relates to 786-0.
For assay [2], the system named is A498.
Assay [3] relates to ACHN.
Assay [4] has as its system M14.
In assay [5] the test system is Malme-3M.
Assay [6] concerns NCI-H23.
Assay [7] concerns NCI-H460.
Assay [8] concerns OVCAR-3.
Assay [9] deals with OVCAR-4.
Assay [10] has as its system SK-MEL-2.
Assay [11] deals with SK-MEL-5.
In assay [12] the test system is SK-OV-3.
In assay [13] the test system is SNB-19.
Assay [14] concerns SW-620.
The subject of assay [15] is UO-31.
In assay [16] the test system is HOP-62.

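Dose response: 5 concentrations. Exposure: 48 h. Format: 96-well plates. Endpoint: linear interpolation; highest concentration if not reached. GI50 is the concentration that inhibits growth by half.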 Activity calls are given as the source filed them. No stated cut-off is given here; in the data, active = GI50 up to about 1.1 µM and inactive = higher.

Regarding `COc1ccc(CCc2ccccc2CC(=O)O)cc1`, the GI50 in [1], in assay [2], in [3], in assay [4], in [5] and in [6] was > 100 µM (inactive) each time. The GI50 in [7], in assay [8], in assay [9], in assay [10], in assay [11] and in assay [12] was > 100 µM (inactive) each time. In addition, the GI50 in assay [13], in assay [14] and in assay [15] was > 100 µM (inactive) throughout.
Take `O=C1C=C(c2ccccc2)NC1(c1ccccc1)c1cc(-c2ccccc2)[nH]c1-c1ccccc1` (configuration not stated): the GI50 in assay [1] was > 100 µM (inactive); in assay [2], > 100 µM (inactive); in [3], > 100 µM (inactive); in [16] it was 2.21 µM (inactive); in assay [4], > 100 µM (inactive); in assay [6], > 100 µM (inactive). Also, the GI50 in [7], in [8], in assay [9], in assay [10], in assay [12] and in assay [13] was > 100 µM (inactive) throughout. The GI50 in assay [14] and in [15] was > 100 µM (inactive) in each case.
Take `CCC1=C(CC)C1(C#N)[N+](=O)[O-]`: the GI50 in assay [1], in assay [2], in assay [3], in assay [16], in assay [4] and in assay [5] was > 100 µM (inactive) in each case. In addition, the GI50 in assay [6], in assay [7], in [8], in assay [9], in assay [10] and in assay [11] was > 100 µM (inactive) each time. The GI50 in assay [12], in [13], in assay [14] and in [15] was > 100 µM (inactive) each time.
For the compound `CCOC(=O)C1=C(C)N(Cc2ccccc2)C(=O)C1CC#N` (configuration not stated), the GI50 in assay [1], in assay [2], in assay [3], in assay [16], in assay [4] and in assay [6] was > 100 µM (inactive) each time. For the same compound, the GI50 was > 100 µM (inactive) in assay [7]; > 100 µM (inactive) in [8]; 47.1 µM (inactive) in assay [9]; > 100 µM (inactive) in assay [10]; > 100 µM (inactive) in assay [12]; > 100 µM (inactive) in assay [13]. Further, the values for the GI50 in assay [14] and in assay [15] were 34 µM (inactive) and > 100 µM (inactive), respectively.
On to `OC1=CN=COc2ccccc21`, for which the GI50 in assay [1], in assay [2], in assay [3], in assay [16], in assay [4] and in [5] was > 100 µM (inactive) in each case. The GI50 in assay [6] was > 100 µM (inactive); in [7], > 100 µM (inactive); in assay [8], > 100 µM (inactive); in [9] it was > 100 µM (inactive); in assay [10] it was > 100 µM (inactive); in assay [12] it was 50.6 µM (inactive). Further, the GI50 was > 100 µM (inactive) in assay [13], > 100 µM (inactive) in [14] and 34.7 µM (inactive) in [15].
Turning to `O=C(Cc1ccccc1)NS(=O)(=O)c1ccccc1`, the GI50 in assay [1], in assay [2], in assay [3], in [16], in [4] and in assay [5] was > 100 µM (inactive) throughout. Besides, the GI50 in assay [6], in assay [7], in assay [8], in assay [9], in assay [10] and in [12] was > 100 µM (inactive) throughout. Besides, the GI50 in assay [13], in assay [14] and in assay [15] was > 100 µM (inactive) throughout.
For `CC[C@@H]1OC2(C)CC(S(=O)(=O)c3ccccc3)CC1O2` (some centres not stated), the GI50 in assay [1], in [3], in assay [16], in assay [4], in assay [5] and in assay [6] was > 100 µM (inactive) throughout. The GI50 in assay [7], in assay [8], in assay [9], in [10], in [11] and in assay [12] was > 100 µM (inactive) in each case. Besides, the GI50 in [13], in [14] and in assay [15] was > 100 µM (inactive) in each case.
`CC(=O)C1CC2(c3ccccc3)C(=O)c3ccccc3N2O1` (configuration not stated): the GI50 in [1], in [2], in assay [3], in [16], in assay [4] and in assay [5] was > 100 µM (inactive) throughout. Further, the GI50 in [6], in assay [9], in assay [11], in [12], in assay [13] and in assay [14] was > 100 µM (inactive) each time. In assay [15], the GI50 was > 100 µM (inactive).
Take `COCC(C)(C)/N=C/N1Cc2cc3ccccc3nc2C1`: the GI50 in assay [1] is > 100 µM (inactive); in assay [3], > 100 µM (inactive); in [16], 93.8 µM (inactive); in [4] it was > 100 µM (inactive); in assay [5], > 100 µM (inactive); in [6], > 100 µM (inactive). The GI50 is > 100 µM (inactive) in [7]; 75.5 µM (inactive) in assay [8]; > 100 µM (inactive) in assay [9]; > 100 µM (inactive) in assay [10]; > 100 µM (inactive) in assay [11]; > 100 µM (inactive) in [12]. The GI50 in assay [13], in assay [14] and in assay [15] was > 100 µM (inactive) throughout.
For the compound `CC(=O)N(C(C)=O)c1c(N)n(C)c(=O)[nH]c1=O`, the GI50 in assay [1], in assay [2], in assay [3], in assay [4], in assay [5] and in assay [6] was > 100 µM (inactive) in each case. Further, the GI50 in assay [7], in [8], in [9], in assay [10], in assay [11] and in assay [13] was > 100 µM (inactive) throughout. In addition, the GI50 in assay [14] and in assay [15] was > 100 µM (inactive) throughout.
As to `Cn1c(=O)c2c(nc(C[N+]3([O-])CCOCC3)n2C)n(C)c1=O`, the GI50 in assay [1], in [3], in assay [16], in assay [4], in assay [5] and in assay [6] was > 100 µM (inactive) throughout. The GI50 in assay [7], in assay [8], in assay [10], in [11], in [12] and in assay [13] was > 100 µM (inactive) throughout. For the same compound, the GI50 in assay [14] and in assay [15] was > 100 µM (inactive) each time.
On to `Nc1ccc(Nc2nc(F)nc(-c3c4ccccc4c4n3CCS4)n2)cc1`, for which the GI50 is 15.7 µM (inactive) in [1]; 12.7 µM (inactive) in assay [3]; 16 µM (inactive) in assay [16]; 17 µM (inactive) in assay [4]; 14.5 µM (inactive) in [5]; 16.2 µM (inactive) in assay [6]. In addition, the GI50 was 19.3 µM (inactive) in assay [8]; 15 µM (inactive) in assay [9]; 14.1 µM (inactive) in [10]; 13.1 µM (inactive) in [11]; 15.3 µM (inactive) in assay [12]; 15.4 µM (inactive) in [13]. The GI50 is 13 µM (inactive) in [14] and 8.38 µM (inactive) in assay [15].
For `COC(=O)[C@@]12OC[C@]34C([C@@H](O)C1O)[C@@]1(C)CC(=O)C(O)=C(C)C1C[C@H]3OC(=O)[C@H](OC(=O)/C=C(/c1ccccc1)C(F)(F)F)[C@H]42` (some centres not stated), the GI50 in assay [1] is 7.93 µM (inactive); in [2] it was 1.82 µM (inactive); in assay [3] it was 4.21 µM (inactive); in assay [16] it was 5.96 µM (inactive); in [4], 3.54 µM (inactive); in assay [5] it was 1.16 µM (inactive). In addition, the GI50 in [6] is 1.48 µM (inactive); in assay [7], 1.03 µM (active); in [9], 6.31 µM (inactive); in [10] it was 8.26 µM (inactive); in [11], 3.28 µM (inactive); in [12], 7.29 µM (inactive). In addition, the values for the GI50 in [13] and in assay [15] were 3.62 µM (inactive) and 6.82 µM (inactive), respectively.
In the case of `Cc1c(C(=O)/C=C/c2ccc3c(c2)OCO3)[n+]([O-])c2ccccc2[n+]1[O-]`, the GI50 in assay [1] was 42.1 µM (inactive); in [2] it was 20.4 µM (inactive); in assay [3], 35.6 µM (inactive); in assay [16], > 100 µM (inactive); in [4], 28.1 µM (inactive); in assay [5] it was 89.5 µM (inactive). Besides, the GI50 in assay [6] is 19.5 µM (inactive); in [7], 28.4 µM (inactive); in [8] it was 24.2 µM (inactive); in assay [9], 40.6 µM (inactive); in assay [12], 21.3 µM (inactive); in assay [13], 56 µM (inactive). In addition, the figures for the GI50 in assay [14] and in [15] were 37.2 µM (inactive) and 28 µM (inactive), respectively.

Values taken from ChEMBL document CHEMBL1201862, “PubChem BioAssay data set” (2004).
